PubChem BioAssay AID2060619 (Molecular Pharmacology Branch, DTP, NCI, 2025)
Several values for one entry are separate records, joined by “and”; a condition that tells them apart may be missing. Equal entries are not always repeated.

System: 323965-272-R-J2-PDC complex spheroid viability
Assay: Anticancer human tumor 323965-272-R-J2-PDC patient-derived pancreatic carcinoma cell line growth inhibition [CLK]
Conditions: for viability, T/C: stronger effect = lower value; active = viability on the fitted dose curve at most 10% of control; inactive = the rest
Description: A high-throughput screen of multi-cell type tumor spheroids was designed to identify active combinations of […] and targeted small molecules. Complex spheroids include a stromal component modeled by human endothelial cells (HUVEC) and fibroblasts modeled by human mesenchymal stem cells (MSCs). The concentration ranges selected for each drug and investigational agent were based upon clinically achievable concentrations if the clinical Cmax of the agent was known.
Compounds. The drugs and investigational agents: cirtuvivint (SM08502; NSC835563), CC-671 (NSC850746), vemurafenib (NSC761431), tapotoclax (NSC804041), sotorasib (NSC818433), adagrasib (NSC831453), MRTX-1133 (NSC836407), BAY2416964 (NSC825713), copanlisib (NSC816437), inavolisib (NSC800729), abemaciclib (NSC768073), osimertinib (NSC779217), entinostat (NSC756642), eltanexor (KPT-8602, NSC794443), venetoclax (NSC766270), ceralasertib (NSC777638), bortezomib (NSC756655), olaparib (NSC753686), talazoparib (NSC767125), alisertib (NSC759677), peposertib (NSC802822), gemcitabine (NSC613327), 5-fluorouracil (NSC19893), SN-38 (NSC673596), oxaliplatin (NSC266046), paclitaxel (NSC125973), and doxorubicin (NSC123127), were obtained from the National Cancer Institute (NCI) Developmental Therapeutics Program Chemical Repository. The FDA-approved anticancer drug set is available from the Developmental Therapeutics Program at https://dtp.cancer.gov/organization/dscb/obtaining/available plates.htm. […] The stock solutions were prepared in dimethyl sulfoxide (DMSO, Sigma-Aldrich, St. Louis, MO, cat. D2650), except for the platinum complexes which were prepared in saline (Quality Biological, Gaithersburg, MD, cat. 114-055-101), at 800-fold the tested concentration and stored at -70 degrees C prior to their use. All drugs and investigational agents were tested over a range starting from a high concentration at or near the clinical Cmax and decreasing in half-log increments. If the clinical Cmax for an agent had not been determined, the highest concentration tested was 10 microM.
Cell Culture. All cells were maintained in an incubator at 37 degrees C and 5% CO2 with 95% humidity. The PDC lines were cultured according to standard operating procedures established by the NCI PDMR. Briefly, all PDCs were thawed and cultured in Matrigel-coated flasks prepared with a working solution of 1X Ham's F-12 nutrient mix, without supplementation (Invitrogen, Waltham, MA, cat. 11765054), 100 U/mL penicillin-streptomycin (Invitrogen, cat. 15140122), and 2.5% Matrigel (Corning Inc., Corning, NY, cat. 354248) for the first three passages. The 947758-054-R-J2-PDC line was cultured in 6B/Colon 1A media, which includes advanced DMEM/F-12 (Thermo Fisher Scientific, cat. 12634028), 10 mM HEPES (Thermo Fisher Scientific, cat. 15630080), 1X GlutaMAX supplement (Thermo Fisher Scientific, cat. 35050061), 0.1 mg/mL primocin (InvivoGen, cat. ant-pm-2), 10% defined fetal bovine serum, heat inactivated (HyClone Laboratories Inc., cat. SH30070.03HI), 1.25 mM N-Acetyl-L-cysteine (Sigma-Aldrich, cat. A9165), 10 mM nicotinamide (Sigma-Aldrich, cat. N0636), 1X B-27 supplement (Thermo Fisher Scientific, cat. 17504044), 1X N-2 supplement (Thermo Fisher Scientific, cat. 17502048), and 10 microM Y-27632 dihydrochloride (Tocris Bioscience, cat. 1254). The 876862-298-R-J1-PDC was cultured in 6E media, which includes all 6B/Colon 1A media components plus 50% L-WRN conditioned media (ATCC, cat. CRL-3276), 50 ng/mL recombinant human EGF recombinant protein (hEGF; Thermo Fisher Scientific, cat. PHG0311), 10 ng/mL recombinant human fibroblast growth factor 10 (hGFG-10; PeproTech, cat. 100-26), 1 ng/mL recombinant human fibroblast growth factor 2 (hFGF-2; PeproTech, cat. 100-18B), and 1 µM prostaglandin E2 (PGE2; Tocris, cat. 2296). The 227483-062-R1-J1-PDC line was cultured in Panc media, containing all 6E components except hFGF-2, with the addition of 500 nM SB-431542 (Selleckchem, cat. S1067) and 10 nM gastrin (Tocris, cat. 3006). […]
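Note: spheroids exposed to agents for seven days before readout.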
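Throughout, for viability, T/C: percent of DMSO vehicle control wells so 100% = untreated growth.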

CNC(=O)c1ccc(Nc2nc(OC3CCCC3)c3c(-c4ccc5nc(C)oc5c4)c[nH]c3n2)c(OC)c1
inactive: viability, T/C (compound 0.1 µM) 87.2% [middle of 12 runs] | viability, T/C (compound 0.316 µM) 65.7% [middle of 12 runs] | viability, T/C (compound 1 µM) 49.8% [middle of 12 runs] | viability, T/C (compound 3.16 µM) 44.7% [middle of 12 runs] | viability, T/C (compound 10 µM) 47.2% [middle of 12 runs]

COc1ccc([C@@H](O)c2cc(-c3ncnc4cc(N5CCOCC5)ccc34)c(F)cc2Cl)nn1
inactive: viability, T/C (compound 0.0316 µM) 105% and 109% | viability, T/C (compound 0.1 µM) 116% and 106% | viability, T/C (compound 0.316 µM) 110% and 95.9% | viability, T/C (compound 1 µM) 92.8% and 92.9% | viability, T/C (compound 3.16 µM) 79.5% and 68.8% | viability, T/C (compound 10 µM) 50.6% and 50.3%
> 10 µM and 9.92 µM: IC50 (curve of compound)

COc1cccc2c1C(=O)c1c(O)c3c(c(O)c1C2=O)CC(O)(C(=O)CO)CC3OC1CC(N)C(O)C(C)O1 (stereo unspecified)
0.24 µM and 0.0976 µM: IC50 (curve of compound)
inactive: viability, T/C (compound 0.0316 µM) 87.4% and 66.2% | viability, T/C (compound 0.1 µM) 40.6% and 41.4% | viability, T/C (compound 0.316 µM) 38.4% and 37% | viability, T/C (compound 1 µM) 44.7% and 30.5% | viability, T/C (compound 3.16 µM) 30.1% and 21.3%
active: viability, T/C (compound 10 µM) 2.57% and 0.82%

C=CC(=O)N1CCN(c2nc(=O)n(-c3c(C)ccnc3C(C)C)c3nc(-c4c(O)cccc4F)c(F)cc23)C(C)C1 (stereo unspecified) + CN1CCN(c2cc(C(=O)Nc3cc4cc(-c5cnn(C)c5)ccc4cn3)ccn2)CC1
inactive: viability, T/C (second compound 0.0316 µM, first compound 0.0316 µM) 63% | viability, T/C (second compound 0.0316 µM, first compound 0.1 µM) 64.3% | viability, T/C (second compound 0.0316 µM, first compound 0.316 µM) 55% | viability, T/C (second compound 0.0316 µM, first compound 1 µM) 63.9% | viability, T/C (second compound 0.0316 µM, first compound 3.16 µM) 60.1% | viability, T/C (second compound 0.0316 µM, first compound 10 µM) 67.9% | viability, T/C (second compound 0.1 µM, first compound 0.0316 µM) 51.3% | viability, T/C (second compound 0.1 µM, first compound 0.1 µM) 45.8% | viability, T/C (second compound 0.1 µM, first compound 0.316 µM) 39.8% | viability, T/C (second compound 0.1 µM, first compound 1 µM) 57.4% | viability, T/C (second compound 0.1 µM, first compound 3.16 µM) 51.5% | viability, T/C (second compound 0.1 µM, first compound 10 µM) 46.6% | viability, T/C (second compound 0.316 µM, first compound 0.0316 µM) 17.9% | viability, T/C (second compound 0.316 µM, first compound 0.1 µM) 17.9% | viability, T/C (second compound 0.316 µM, first compound 0.316 µM) 16% | viability, T/C (second compound 0.316 µM, first compound 1 µM) 18.2% | viability, T/C (second compound 0.316 µM, first compound 3.16 µM) 17.4% | viability, T/C (second compound 0.316 µM, first compound 10 µM) 22.6%
active: viability, T/C (second compound 1 µM, first compound 0.0316 µM) 2.53% | viability, T/C (second compound 1 µM, first compound 0.1 µM) 3.03% | viability, T/C (second compound 1 µM, first compound 0.316 µM) 3.22% | viability, T/C (second compound 1 µM, first compound 1 µM) 3.64% | viability, T/C (second compound 1 µM, first compound 3.16 µM) 5.21% | viability, T/C (second compound 1 µM, first compound 10 µM) 5.85% | viability, T/C (second compound 3.16 µM, first compound 0.0316 µM) 2.77% | viability, T/C (second compound 3.16 µM, first compound 0.1 µM) 2.98% | viability, T/C (second compound 3.16 µM, first compound 0.316 µM) 3.49% | viability, T/C (second compound 3.16 µM, first compound 1 µM) 3.29% | viability, T/C (second compound 3.16 µM, first compound 3.16 µM) 5.91% | viability, T/C (second compound 3.16 µM, first compound 10 µM) 5.6% | viability, T/C (second compound 10 µM, first compound 0.0316 µM) 3.45% | viability, T/C (second compound 10 µM, first compound 0.1 µM) 3.36% | viability, T/C (second compound 10 µM, first compound 0.316 µM) 3.83% | viability, T/C (second compound 10 µM, first compound 1 µM) 3.24% | viability, T/C (second compound 10 µM, first compound 3.16 µM) 4.22% | viability, T/C (second compound 10 µM, first compound 10 µM) 4.53%
< 0.0316 µM: IC50 (curve of first compound, second compound 0.1 µM) | IC50 (curve of first compound, second compound 0.316 µM) | IC50 (curve of first compound, second compound 1 µM) | IC50 (curve of first compound, second compound 3.16 µM) | IC50 (curve of first compound, second compound 10 µM)
> 10 µM: IC50 (curve of first compound, second compound 0.0316 µM)
